Data on 4 molecules can be found in patent US20210061917A1, “METHODS AND COMPOSITIONS FOR TREATING VITILIGO” (INSERM (Institut National de la Santé et de la Recherche …, priority 2018, published 2021).

Format in all cases: cell-based
Experiment [1] concerns the target T1, CXCR3 (Homo sapiens, UniProt P49682).
T1 sequence (P49682 1-415 isoform P49682-2): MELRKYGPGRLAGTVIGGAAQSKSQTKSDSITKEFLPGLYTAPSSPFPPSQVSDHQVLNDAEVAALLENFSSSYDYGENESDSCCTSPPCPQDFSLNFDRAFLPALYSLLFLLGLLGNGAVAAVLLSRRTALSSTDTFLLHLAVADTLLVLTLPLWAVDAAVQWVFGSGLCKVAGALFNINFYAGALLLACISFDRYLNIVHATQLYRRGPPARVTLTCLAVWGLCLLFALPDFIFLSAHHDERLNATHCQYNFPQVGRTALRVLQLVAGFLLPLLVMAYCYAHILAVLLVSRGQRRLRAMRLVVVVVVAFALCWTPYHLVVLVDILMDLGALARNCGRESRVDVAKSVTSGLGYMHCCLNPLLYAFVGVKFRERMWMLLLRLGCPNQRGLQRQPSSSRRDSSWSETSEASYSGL
Description: CXCL10-induced melanocyte death, IncuCyte live cell imaging, with CXCR3 antagonist, blocking antibody or siCXCR3. To be noted: IFNγ-pretreated (50 ng/ml, 48 hrs) vitiligo melanocytes; AS612568 0.02, 0.2, 2 μM; FIG. 2A.
Description: (A) Effect of CXCL10 (5, 20, 100 pg/ml) on cell viability in unstimulated or IFNγ stimulated (50 ng/ml for 48 hrs) melanocytes from vitiligo patients, in presence or absence of CXCR3 antagonist AS612568 (0.02 μM, 0.2 μM or 2 μM) (n=5-8). Cell viability was monitored using lncuCyte® live cell fluorescence imaging system. (B) Effect of siCXCR3 or siC on CXCL10 (100 pg/ml)-induced death of healthy (n=4-8) and vitiligo (n=4) melanocytes. Melanocytes were tracked with CellTracker™ Red CMPTX dye and dead cells tracked with IncuCyte® Cytotox Green reagent. […] Cell viability was monitored using IncuCyte® live cell fluorescence imaging system. […] Results are expressed as mean with SEM, *P<0.05, **P<0.01 and ***P<0.001.
Melanocytes were plated in 96-well plates (10,000/well) and stimulated with 50 ng/ml IFNγ for 48 hrs prior to transfection with 50 or 80 nM siCXCR3 or siC (SmartPool scramble sequence siRNA, Dharmacon, France) or with 80 nM custom-designed siCXCR3B or siC (ThermoFisher, France) using Lipofectamine® RNAiMAX Reagent (Invitrogen, France) in optiMEM medium (Invitrogen). […] Finally, Incucyte® green Cytotox Reagent (100 nM, Essen Bioscience, Michigan, USA) was added to all wells and melanocyte death monitored in real-time using IncuCyte® Zoom live-cell imaging system (Essen Biosciences) which was inside a 37° C. humidified CO2 incubator scanning the plate every 2 hrs. […]

Experiment [2] deals with T1, CXCR3. Description: CXCL10-induced death of vitiligo melanocytes in co-culture with autologous CD3+ T cells, IncuCyte. The source says:
(A) CXCL10-induced death of vitiligo melanocytes in presence or absence of patients own autologous T cells. […] The next day, media was replaced and 3 days later patient's own CD3+ T cell were sorted and added to the melanocytes (n=3) prior to initiation of IncuCyte.

The next experiment deals with human melanocytes. Description: Melanocyte death after chemokine stimulation, IncuCyte live cell imaging. The following applies: for melanocyte death: chemokine 100 pg/ml, healthy and vitiligo melanocytes, 24 hrs, FIG. 2C.

Description for human melanocytes: (A) Effect of CXCL10 (5, 20, 100 pg/ml) on cell viability in unstimulated or IFNγ stimulated (50 ng/ml for 48 hrs) melanocytes from vitiligo patients, in presence or absence of CXCR3 antagonist AS612568 (0.02 μM, 0.2 μM or 2 μM) (n=5-8). Cell viability was monitored using lncuCyte® live cell fluorescence imaging system. (B) Effect of siCXCR3 or siC on CXCL10 (100 pg/ml)-induced death of healthy (n=4-8) and vitiligo (n=4) melanocytes. Melanocytes were tracked with CellTracker™ Red CMPTX dye and dead cells tracked with IncuCyte® Cytotox Green reagent. (C) Healthy and vitiligo melanocytes (n=6-12) were transfected with custom-designed siCXCR3B or siC and melanocyte death shown at 24 hrs following CXCL10, CXCL9 or CXCL11 (100 pg/ml) stimulation. (D) Effect of CXCL10 (100 pg/ml) on cell viability in untreated or IFNγ pretreated (50 ng/ml for 48 hrs) melanocytes from vitiligo patients, in presence or absence of CXCR3 blocking antibody (MAB-160, R&D Systems, USA at 1 or 10 μg/ml) (n=3). Cell viability was monitored using IncuCyte® live cell fluorescence imaging system. Melanocytes were tracked with CellTracker™ Red CMPTX dye and dead cells tracked with IncuCyte® Cytotox Green reagent. Results are expressed as mean with SEM, *P<0.05, **P<0.01 and ***P<0.001.
Melanocytes were plated in 96-well plates (10,000/well) and stimulated with 50 ng/ml IFNγ for 48 hrs prior to transfection with 50 or 80 nM siCXCR3 or siC (SmartPool scramble sequence siRNA, Dharmacon, France) or with 80 nM custom-designed siCXCR3B or siC (ThermoFisher, France) using Lipofectamine® RNAiMAX Reagent (Invitrogen, France) in optiMEM medium (Invitrogen). […] Finally, Incucyte® green Cytotox Reagent (100 nM, Essen Bioscience, Michigan, USA) was added to all wells and melanocyte death monitored in real-time using IncuCyte® Zoom live-cell imaging system (Essen Biosciences) which was inside a 37° C. humidified CO2 incubator scanning the plate every 2 hrs. Multiple images were collected per well and quantification of dead melanocytes (yellow co-localised cells) was analysed using the integrated Zoom® software. […]

With `N#Cc1ccc(S(=O)(=O)N(Cc2ccc(-c3nnn[nH]3)c(F)c2)Cc2ccccc2F)cc1` [AS612568, 4-cyano-N-(3-fluoro-4-(1H-tetrazol-5-yl)benzyl)-N-(2-fluorobenzyl)benzenesulfonamide], the “melanocyte death induced by CXCL10” value at CXCR3 [1] was “inhibited melanocyte death induced by CXCL10 in a dose-dependent manner”. The “augmentation of T cell number” value at CXCR3 [2] (AS612568 2 μM, CD3+ T cells in IncuCyte co-culture, P=0.04, FIG. 3B) is given as “prevented”. Moreover, the “potentiating effect of T cells on CXCL10-induced melanocyte death” value on CXCR3 [2] (AS612568 2 μM, IFNγ-pretreated vitiligo melanocytes plus autologous CD3+ T cells, P=0.008, FIG. 3A) is given as “prevented”. Moreover, the T cell proliferation result at CXCR3 [2] (AS612568, T cells co-cultured with IFNγ-primed, CXCL10-stimulated melanocytes, data not shown) is given as “prevented”.
Consider “CXCL10: recombinant human chemokine (PeproTech), CXCR3 ligand used as stimulus”, for which, in the experiment on human melanocytes (vitiligo melanocytes, IFNγ pre-treated, CXCL10 5, 20, 100 pg/ml, dose-dependent, P=0.006, FIG. 2A), the “melanocyte death compared to non-stimulated melanocytes” value was “significantly increased melanocyte death”.

B1: CXCL11: recombinant human chemokine (PeproTech), CXCR3 ligand used as stimulus (protein, UniProt O14625 22-94, looked up)
C-X-C motif chemokine 11: FPMFKRGRCLCIGPGVKAVKVADIEKASIMYPSNNCDKIEVIITLKENKGQRCLNPKSKQARLIIKKVERKNF
On to B1, for which the melanocyte death result in the experiment on human melanocytes was “induced a significant melanocyte death”.

B2: CXCL9: recombinant human chemokine (PeproTech), CXCR3 ligand used as stimulus (protein, UniProt Q07325 23-125, looked up)
C-X-C motif chemokine 9: TPVVRKGRCSCISTNQGTIHLQSLKDLKQFAPSPSCEKIEIIATLKNGVQTCLNPDSADVKELIKKWEKQVSQKKKQKNGKKHQKKKVLKVRKSQRSRQKKTT
For the molecule B2, the melanocyte death entry with human melanocytes is “induced a significant melanocyte death”.
